Data reported in ChEMBL document CHEMBL1201861, “Genomics of Drug Sensitity in Cancer screening data, Wellcome Trust Sanger Institute”.

Legend:
COR-L279 = experiment: SANGER: Inhibition of human COR-L279 cell growth in a cell viability assay.; type: functional, cell-based
EB-3 = experiment: cells; type: functional, cell-based; conditions: Homo sapiens;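 also: human EB-3 cells, growth inhibition read out via a cell viability assay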
Description: SANGER: Inhibition of human EB-3 cell growth in a cell viability assay.

EVSA-T = experiment: cells; type: functional, cell-based, Homo sapiens; conditions: Homo sapiens, EVSA-T;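 also: growth inhibition of EVSA-T cells, read out with a cell viability assay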
Description: SANGER: Inhibition of human EVSA-T cell growth in a cell viability assay.

G-361 = experiment: cells; type: functional, cell-based, Homo sapiens; conditions: Homo sapiens, G-361
GDM-1 = experiment: cells; type: functional, cell-based; conditions: Homo sapiens;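 also: cell viability readout used to measure growth inhibition of human GDM-1 cells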
Description: SANGER: Inhibition of human GDM-1 cell growth in a cell viability assay.

HCC1599 = experiment: cells; type: functional, cell-based; conditions: Homo sapiens;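 also: growth inhibition of HCC1599 cells, read out in a cell viability assay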
Description: SANGER: Inhibition of human HCC1599 cell growth in a cell viability assay.

HT55 = experiment: cells; type: functional, cell-based, Homo sapiens; conditions: Homo sapiens, HT55;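 also: cell viability readout measuring growth inhibition of human HT55 cells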
Description: SANGER: Inhibition of human HT55 cell growth in a cell viability assay.

IM-9 = experiment: SANGER: Inhibition of human IM-9 cell growth in a cell viability assay.; type: functional, cell-based
IST-SL2 = experiment: cells; type: functional, cell-based; conditions: Homo sapiens;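 also: growth inhibition of human IST-SL2 cells, read out by a cell viability assay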
Description: SANGER: Inhibition of human IST-SL2 cell growth in a cell viability assay.

JIYOYE = experiment: cells; type: functional, cell-based; conditions: Homo sapiens
Description: SANGER: Inhibition of human JiyoyeP-2003 cell growth in a cell viability assay.

K052 = experiment: cells; type: functional, cell-based; conditions: Homo sapiens;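 also: Read-out from a cell viability assay, IC50 reflecting suppression of K052 cell growth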
Description: SANGER: Inhibition of human K052 cell growth in a cell viability assay.

KARPAS-422 = experiment: cells; type: functional, cell-based; conditions: Homo sapiens
Description: SANGER: Inhibition of human KARPAS-422 cell growth in a cell viability assay.

KMS-12-PE = experiment: cells; type: functional, cell-based; conditions: Homo sapiens;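 also: growth inhibition of human KMS-12-PE cells, measured with a cell viability assay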
Description: SANGER: Inhibition of human KMS-12-PE cell growth in a cell viability assay.

L-540 = experiment: cells; type: functional, cell-based; conditions: Homo sapiens;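 also: growth inhibition of the human L-540 cell line, read out with a viability assay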
Description: SANGER: Inhibition of human L-540 cell growth in a cell viability assay.

LOUCY = experiment: cells; type: functional, cell-based; conditions: Homo sapiens;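 also: growth inhibition of human LOUCY cells, read out with a cell viability assay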
Description: SANGER: Inhibition of human LOUCY cell growth in a cell viability assay.

LU-165 = experiment: cells; type: functional, cell-based; conditions: Homo sapiens
Description: SANGER: Inhibition of human LU-165 cell growth in a cell viability assay.

MC-CAR = experiment: cells; type: functional, cell-based; conditions: Homo sapiens;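 also: growth inhibition of the human MC-CAR cell line, read out by a cell viability assay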
Description: SANGER: Inhibition of human MC-CAR cell growth in a cell viability assay.

MDA-MB-134-VI = experiment: cells; type: functional, cell-based; conditions: Homo sapiens
Description: SANGER: Inhibition of human MDA-MB-134-VI cell growth in a cell viability assay.

MEL-JUSO = experiment: cells; type: functional, cell-based, Homo sapiens; conditions: Homo sapiens, MEL-JUSO;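 also: growth inhibition of human MEL-JUSO cells, read out with a cell viability assay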
Description: SANGER: Inhibition of human MEL-JUSO cell growth in a cell viability assay.

MRK-nu-1 = experiment: cells; type: functional, cell-based; conditions: Homo sapiens;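 also: cell viability assay measuring growth suppression of human MRK-nu-1 cells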
Description: SANGER: Inhibition of human MRK-nu-1 cell growth in a cell viability assay.

NCI-H1436 = experiment: cells; type: functional, cell-based; conditions: Homo sapiens;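 also: growth suppression of human NCI-H1436 cells, determined with a cell viability readout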
Description: SANGER: Inhibition of human NCI-H1436 cell growth in a cell viability assay.

NCI-H1522 = experiment: cells; type: functional, cell-based; conditions: Homo sapiens;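 also: growth inhibition of NCI-H1522 cells, read out with a cell viability assay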
Description: SANGER: Inhibition of human NCI-H1522 cell growth in a cell viability assay.

NCI-H1694 = experiment: cells; type: functional, cell-based; conditions: Homo sapiens;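 also: cell viability assay measuring inhibition of growth in human NCI-H1694 cells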
Description: SANGER: Inhibition of human NCI-H1694 cell growth in a cell viability assay.

NCI-H1703 = experiment: cells; type: functional, cell-based, Homo sapiens; conditions: Homo sapiens, NCI-H1703;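 also: growth inhibition of NCI-H1703 cells, read out via a cell viability assay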
Description: SANGER: Inhibition of human NCI-H1703 cell growth in a cell viability assay.

NCI-H1882 = experiment: cells; type: functional, cell-based; conditions: Homo sapiens;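 also: growth inhibition of the cell line, determined with a viability assay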
Description: SANGER: Inhibition of human NCI-H1882 cell growth in a cell viability assay.

NCI-H2141 = experiment: cells; type: functional, cell-based; conditions: Homo sapiens;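 also: growth inhibition of human NCI-H2141 cells, read out with a cell viability assay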
Description: SANGER: Inhibition of human NCI-H2141 cell growth in a cell viability assay.

NCI-H460 = experiment: cells; type: functional, cell-based, Homo sapiens; conditions: Homo sapiens, NCI-H460;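 also: cell viability assay scoring growth inhibition of human NCI-H460 cells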
Description: SANGER: Inhibition of human NCI-H460 cell growth in a cell viability assay.

NCI-H524 = experiment: cells; type: functional, cell-based; conditions: Homo sapiens;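 also: growth inhibition of human NCI-H524 cells, read out through a cell viability assay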
Description: SANGER: Inhibition of human NCI-H524 cell growth in a cell viability assay.

NCI-H64 = experiment: cells; type: functional, cell-based; conditions: Homo sapiens;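 also: growth inhibition of NCI-H64 cells, read out with a cell viability assay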
Description: SANGER: Inhibition of human NCI-H64 cell growth in a cell viability assay.

NCI-H889 = experiment: cells; type: functional, cell-based; conditions: Homo sapiens;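 also: cell growth inhibition of the cell line, read out with a viability assay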
Description: SANGER: Inhibition of human NCI-H889 cell growth in a cell viability assay.

SNU-16 = experiment: cells; type: functional, cell-based; conditions: Homo sapiens;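 also: growth inhibition of human SNU-16 cells, determined with a cell viability readout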
Description: SANGER: Inhibition of human NCI-SNU-16 cell growth in a cell viability assay.

Raji = experiment: cells; type: functional, cell-based; conditions: Homo sapiens;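 also: cell viability assay measuring inhibition of Raji cell growth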
Description: SANGER: Inhibition of human Raji cell growth in a cell viability assay.

SCLC-21H = experiment: cells; type: functional, cell-based; conditions: Homo sapiens;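 also: growth inhibition of cultured human SCLC-21H cells, read out with a cell viability assay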
Description: SANGER: Inhibition of human SCLC-21H cell growth in a cell viability assay.

SK-MM-2 = experiment: cells; type: functional, cell-based; conditions: Homo sapiens;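 also: growth inhibition of human SK-MM-2 cells, read out with a cell viability assay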
Description: SANGER: Inhibition of human SK-MM-2 cell growth in a cell viability assay.

SNU-C1 = experiment: cells; type: functional, cell-based; conditions: Homo sapiens;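 also: growth inhibition of SNU-C1 human cells, read out by a cell viability assay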
Description: SANGER: Inhibition of human SNU-C1 cell growth in a cell viability assay.

ST486 = experiment: SANGER: Inhibition of human ST486 cell growth in a cell viability assay.; type: functional, cell-based
SU-DHL-1 = experiment: SANGER: Inhibition of human SU-DHL-1 cell growth in a cell viability assay.; type: functional, cell-based
SUP-T1 = experiment: cells; type: functional, cell-based; conditions: Homo sapiens;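 also: growth inhibition of human SUP-T1 cells, read out as cell viability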
Description: SANGER: Inhibition of human SUP-T1 cell growth in a cell viability assay.

23132-87 = experiment: cells; type: functional, cell-based, Homo sapiens; conditions: Homo sapiens
Description: SANGER: Inhibition of human 23132-87 cell growth in a cell viability assay.

BC-3 = experiment: cells; type: functional, cell-based; conditions: Homo sapiens;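 also: cell viability assay measuring growth inhibition of human BC-3 cells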
Description: SANGER: Inhibition of human BC-3 cell growth in a cell viability assay.

BL-41 = experiment: cells; type: functional, cell-based; conditions: Homo sapiens;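 also: growth inhibition of human BL-41 cells, read out with a cell viability assay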
Description: SANGER: Inhibition of human BL-41 cell growth in a cell viability assay.

BL-70 = experiment: SANGER: Inhibition of human BL-70 cell growth in a cell viability assay.; type: functional, cell-based
CA46 = experiment: cells; type: functional, cell-based; conditions: Homo sapiens;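 also: growth inhibition of human CA46 cells, read out by a cell viability assay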
Description: SANGER: Inhibition of human CA46 cell growth in a cell viability assay.

CAL-148 = experiment: cells; type: functional, cell-based; conditions: Homo sapiens
Description: SANGER: Inhibition of human CAL-148 cell growth in a cell viability assay.

TE-15 = experiment: cells; type: functional, cell-based; conditions: Homo sapiens;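 also: cell viability readout of growth inhibition in TE-15 cells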
Description: SANGER: Inhibition of human TE-15 cell growth in a cell viability assay.

UACC-812 = experiment: cells; type: functional, cell-based; conditions: Homo sapiens
Description: SANGER: Inhibition of human UACC-812 cell growth in a cell viability assay.

WSU-NHL = experiment: cells; type: functional, cell-based; conditions: Homo sapiens;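 also: growth inhibition of human WSU-NHL cells, read out with a cell viability assay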
Description: SANGER: Inhibition of human WSU-NHL cell growth in a cell viability assay.

YT = experiment: cells; type: functional, cell-based; conditions: Homo sapiens
Description: SANGER: Inhibition of human YT cell growth in a cell viability assay.

CESS = experiment: SANGER: Inhibition of human CESS cell growth in a cell viability assay.; type: functional, cell-based
CMK = experiment: cells; type: functional, cell-based; conditions: Homo sapiens;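 also: growth inhibition of CMK cells, read out as cell viability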
Description: SANGER: Inhibition of human CMK cell growth in a cell viability assay.

C[C@]1(O)C[C@@H](c2nc(-c3ccc4ccc(-c5ccccc5)nc4c3)c3c(N)nccn32)C1 [LINSITINIB]
IC50 (COR-L279): > 2560 nM
IC50 (EB-3): > 2560 nM
IC50 (EVSA-T): > 2560 nM
IC50 (G-361): > 2560 nM
IC50 (GDM-1): 137 nM
IC50 (HCC1599): > 2560 nM
IC50 (HT55): > 2560 nM
IC50 (IM-9): > 2560 nM
IC50 (IST-SL2): > 2560 nM
IC50 (JIYOYE): > 2560 nM
IC50 (K052): > 2560 nM
IC50 (KARPAS-422): > 2560 nM
IC50 (KMS-12-PE): > 2560 nM
IC50 (L-540): > 2560 nM
IC50 (LOUCY): > 2560 nM
IC50 (LU-165): > 2560 nM
IC50 (MC-CAR): > 2560 nM
IC50 (MDA-MB-134-VI): > 2560 nM
IC50 (MEL-JUSO): 1160 nM
IC50 (MRK-nu-1): > 2560 nM
IC50 (NCI-H1436): > 2560 nM
IC50 (NCI-H1522): > 2560 nM
IC50 (NCI-H1694): > 2560 nM
IC50 (NCI-H1703): > 2560 nM
IC50 (NCI-H1882): > 2560 nM
IC50 (NCI-H2141): > 2560 nM
IC50 (NCI-H460): > 2560 nM
IC50 (NCI-H524): > 2560 nM
IC50 (NCI-H64): > 2560 nM
IC50 (NCI-H889): > 2560 nM
IC50 (SNU-16): > 2560 nM
IC50 (Raji): > 2560 nM
IC50 (SCLC-21H): > 2560 nM
IC50 (SK-MM-2): 655 nM
IC50 (SNU-C1): 293 nM
IC50 (ST486): > 2560 nM
IC50 (SU-DHL-1): > 2560 nM
IC50 (SUP-T1): > 2560 nM
IC50 (23132-87): > 2560 nM
IC50 (BC-3): > 2560 nM
IC50 (BL-41): > 2560 nM
IC50 (BL-70): > 2560 nM
IC50 (CA46): > 2560 nM
IC50 (CAL-148): > 2560 nM
IC50 (TE-15): > 2560 nM
IC50 (UACC-812): > 2560 nM
IC50 (WSU-NHL): > 2560 nM
IC50 (YT): > 2560 nM
IC50 (CESS): > 2560 nM
IC50 (CMK): 999 nM

Cc1ccc(Nc2nccc(N(C)c3ccc4c(C)n(C)nc4c3)n2)cc1S(N)(=O)=O [PAZOPANIB]
IC50 (COR-L279): > 8000 nM
IC50 (EB-3): > 8000 nM
IC50 (EVSA-T): > 8000 nM
IC50 (G-361): 3040 nM
IC50 (GDM-1): 104 nM
IC50 (HCC1599): > 8000 nM
IC50 (HT55): 988 nM
IC50 (IM-9): > 8000 nM
IC50 (IST-SL2): > 8000 nM
IC50 (JIYOYE): > 8000 nM
IC50 (K052): > 8000 nM
IC50 (KARPAS-422): > 8000 nM
IC50 (KMS-12-PE): > 8000 nM
IC50 (L-540): > 8000 nM
IC50 (LOUCY): > 8000 nM
IC50 (LU-165): > 8000 nM
IC50 (MC-CAR): > 8000 nM
IC50 (MDA-MB-134-VI): > 8000 nM
IC50 (MEL-JUSO): > 8000 nM
IC50 (MRK-nu-1): > 8000 nM
IC50 (NCI-H1436): > 8000 nM
IC50 (NCI-H1522): > 8000 nM
IC50 (NCI-H1694): > 8000 nM
IC50 (NCI-H1703): > 8000 nM
IC50 (NCI-H1882): > 8000 nM
IC50 (NCI-H2141): > 8000 nM
IC50 (NCI-H460): > 8000 nM
IC50 (NCI-H524): > 8000 nM
IC50 (NCI-H64): > 8000 nM
IC50 (NCI-H889): > 8000 nM
IC50 (SNU-16): > 8000 nM
IC50 (Raji): > 8000 nM
IC50 (SCLC-21H): > 8000 nM
IC50 (SK-MM-2): > 8000 nM
IC50 (SNU-C1): > 8000 nM
IC50 (ST486): > 8000 nM
IC50 (SU-DHL-1): > 8000 nM
IC50 (SUP-T1): > 8000 nM
IC50 (23132-87): > 8000 nM
IC50 (BC-3): > 8000 nM
IC50 (BL-41): > 8000 nM
IC50 (BL-70): > 8000 nM
IC50 (CA46): > 8000 nM
IC50 (CAL-148): > 8000 nM
IC50 (TE-15): 7170 nM
IC50 (UACC-812): > 8000 nM
IC50 (WSU-NHL): > 8000 nM
IC50 (YT): > 8000 nM
IC50 (CESS): > 8000 nM
IC50 (CMK): > 8000 nM

C=CCc1cccc(/C=N/NC(=O)CN2CCN(Cc3ccccc3)CC2)c1O [PAC-1]
IC50 (COR-L279): > 2560 nM
IC50 (EB-3): > 2560 nM
IC50 (EVSA-T): > 2560 nM
IC50 (G-361): 1190 nM
IC50 (GDM-1): > 2560 nM
IC50 (HCC1599): > 2560 nM
IC50 (HT55): > 2560 nM
IC50 (IM-9): > 2560 nM
IC50 (IST-SL2): > 2560 nM
IC50 (JIYOYE): 1100 nM
IC50 (K052): > 2560 nM
IC50 (KARPAS-422): > 2560 nM
IC50 (KMS-12-PE): > 2560 nM
IC50 (L-540): 2200 nM
IC50 (LOUCY): 823 nM
IC50 (LU-165): > 2560 nM
IC50 (MC-CAR): 1530 nM
IC50 (MDA-MB-134-VI): > 2560 nM
IC50 (MEL-JUSO): > 2560 nM
IC50 (MRK-nu-1): > 2560 nM
IC50 (NCI-H1436): > 2560 nM
IC50 (NCI-H1522): > 2560 nM
IC50 (NCI-H1694): > 2560 nM
IC50 (NCI-H1703): > 2560 nM
IC50 (NCI-H1882): > 2560 nM
IC50 (NCI-H2141): > 2560 nM
IC50 (NCI-H460): > 2560 nM
IC50 (NCI-H524): > 2560 nM
IC50 (NCI-H64): > 2560 nM
IC50 (NCI-H889): > 2560 nM
IC50 (SNU-16): > 2560 nM
IC50 (Raji): 2130 nM
IC50 (SCLC-21H): > 2560 nM
IC50 (SK-MM-2): > 2560 nM
IC50 (SNU-C1): > 2560 nM
IC50 (ST486): 967 nM
IC50 (SU-DHL-1): > 2560 nM
IC50 (SUP-T1): 1000 nM
IC50 (23132-87): > 2560 nM
IC50 (BC-3): > 2560 nM
IC50 (BL-41): 1450 nM
IC50 (BL-70): 1970 nM
IC50 (CA46): 2020 nM
IC50 (CAL-148): > 2560 nM
IC50 (TE-15): > 2560 nM
IC50 (UACC-812): > 2560 nM
IC50 (WSU-NHL): > 2560 nM
IC50 (YT): > 2560 nM
IC50 (CESS): 1490 nM
IC50 (CMK): 2130 nM
